Measured values taken from ChEMBL document CHEMBL5528062 (J Med Chem, 2024).

What was measured:
[1] = system: Mycobacterium tuberculosis; assay: Induction of resistance development in Mycobacterium tuberculosis harbouring katG F594C mutant assessed as resistance frequency at 5 times of MIC by visual analysis; format: functional
[2] = system: Mycobacterium tuberculosis; assay: Induction of resistance development in Mycobacterium tuberculosis harbouring atpE gene assessed as resistance frequency at 5 times of MIC by visual analysis; format: functional

`C[C@]1(COc2ccc(N3CCC(Oc4ccc(OC(F)(F)F)cc4)CC3)cc2)Cn2cc([N+](=O)[O-])nc2O1` gave an Activity [1] of 2%.

`COc1nc2ccc(Br)cc2cc1[C@@H](c1ccccc1)[C@@](O)(CCN(C)C)c1cccc2ccccc12` [BEDAQUILINE] was tested, and the Activity [2] was 17.3% and the Activity [1] was 5.26%.
